Article PMC10649927, “Integration of Deep Learning and Sequential Metabolism to Rapidly Screen Dipeptidyl Peptidase (DPP)-IV Inhibitors from Gardenia jasminoides Ellis” (Molecules, 2023)

Each compound was assayed against T1, human recombinant DPP-IV (Homo sapiens, UniProt P27487) (assay: Gly-Pro-pNA hydrolysis, absorbance at […] nm). Details: Gly-Pro-pNA substrate (20 µL of 1.75 mM), 0.1 M Tris-HCl, 0.1 M NaCl, 1 mM EDTA, pH 8.0, 37 °C, 30 min.
T1 construct: gene DPP4; commercial recombinant human enzyme from ProSpec (Rehovot, Israel)
T1 sequence (P27487 29-766 limits assumed): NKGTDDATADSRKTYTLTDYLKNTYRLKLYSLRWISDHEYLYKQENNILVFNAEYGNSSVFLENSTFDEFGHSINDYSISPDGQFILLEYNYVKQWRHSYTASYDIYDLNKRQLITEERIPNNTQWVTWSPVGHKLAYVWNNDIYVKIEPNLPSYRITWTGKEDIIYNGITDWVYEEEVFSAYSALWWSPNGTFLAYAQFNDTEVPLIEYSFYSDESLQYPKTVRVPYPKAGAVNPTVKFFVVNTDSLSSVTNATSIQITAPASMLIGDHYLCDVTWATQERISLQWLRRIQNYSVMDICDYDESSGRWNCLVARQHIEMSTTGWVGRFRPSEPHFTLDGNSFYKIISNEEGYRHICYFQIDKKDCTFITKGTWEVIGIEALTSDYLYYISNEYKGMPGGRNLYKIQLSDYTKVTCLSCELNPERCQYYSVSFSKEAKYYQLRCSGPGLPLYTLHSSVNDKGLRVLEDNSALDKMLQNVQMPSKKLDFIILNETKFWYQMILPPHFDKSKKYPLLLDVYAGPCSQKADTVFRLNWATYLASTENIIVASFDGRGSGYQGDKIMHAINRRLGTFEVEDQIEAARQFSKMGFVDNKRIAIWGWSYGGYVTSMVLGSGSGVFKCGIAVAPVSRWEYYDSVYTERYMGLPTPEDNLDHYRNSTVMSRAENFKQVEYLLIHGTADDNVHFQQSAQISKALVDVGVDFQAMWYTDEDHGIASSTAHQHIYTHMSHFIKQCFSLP
Assay type: biochemical

| SMILES | % inhibition at 1 mM |
| --- | --- |
| COC(=O)C1=CO[C@@H](O[C@@H]2O[C@H](CO)[C@@H](O)[C@H](O)[C@H]2O)[C@H]2[C@@H]1[C@H](O)C[C@]2(C)O [compound 5, shanzhiside methyl ester] | the six GJE compounds inhibited the activity of DPP-IV |
| O=C(O)C1=CO[C@@H](O[C@@H]2O[C@H](CO)[C@@H](O)[C@H](O)[C@H]2O)[C@@H]2C(CO)=CC[C@H]12 [compound 4, geniposidic acid] | the six GJE compounds inhibited the activity of DPP-IV |
| C[C@]1(O)C[C@@H](O)[C@@H]2C(C(=O)O)=CO[C@@H](O[C@@H]3O[C@H](CO)[C@@H](O)[C@H](O)[C@H]3O)[C@@H]21 [compound 6, shanzhiside] | the six GJE compounds inhibited the activity of DPP-IV |
| O=C(O)C1=CO[C@@H](O[C@@H]2O[C@H](CO)[C@@H](O)[C@H](O)[C@H]2O)[C@@H]2C(CO)=C[C@@H](O)[C@H]12 [compound 3, scandoside] | the six GJE compounds inhibited the activity of DPP-IV |
